In US10738041B2, “Ferroportin inhibitors” (Vifor (International) AG, priority 2015, dated 2020):
Read-outs that look alike come from different tables or passages of the source.

Experiments:
[1] = target: T1, human Fpn (Homo sapiens, UniProt Q9NP59); test: Biophysical Ferroportin-Hepcidin Binding Assay (fluorescence polarization)
T1 construct: FLAG (C); made in house; host or cells: Pichia pastoris
T1 sequence (Q9NP59 1-571): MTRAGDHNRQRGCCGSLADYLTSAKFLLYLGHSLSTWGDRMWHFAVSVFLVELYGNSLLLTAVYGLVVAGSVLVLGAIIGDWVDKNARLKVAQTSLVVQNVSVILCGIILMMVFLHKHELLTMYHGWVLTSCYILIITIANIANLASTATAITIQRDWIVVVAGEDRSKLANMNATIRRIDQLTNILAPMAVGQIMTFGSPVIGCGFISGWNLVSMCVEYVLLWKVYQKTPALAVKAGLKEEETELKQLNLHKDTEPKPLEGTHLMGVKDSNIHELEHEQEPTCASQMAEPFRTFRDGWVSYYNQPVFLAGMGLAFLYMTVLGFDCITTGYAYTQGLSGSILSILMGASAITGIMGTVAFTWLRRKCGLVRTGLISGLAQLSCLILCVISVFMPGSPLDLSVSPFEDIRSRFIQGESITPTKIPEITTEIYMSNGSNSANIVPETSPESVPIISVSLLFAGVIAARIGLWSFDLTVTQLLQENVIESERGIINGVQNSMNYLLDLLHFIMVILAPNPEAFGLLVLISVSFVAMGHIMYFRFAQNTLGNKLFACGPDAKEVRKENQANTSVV
In short: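 FP readout: a dose-dependent drop in TMR-hepcidin polarization (mP, from parallel and perpendicular emission) marked blocked binding to FLAG-tagged human Fpn purified from Pichia pastoris. Final levels were 1 μM Fpn and 20 nM TMR-hepcidin, with compound dilutions in duplicate, incubated 90 min at room temperature.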

[2] = target: T2, human Fpn-GFP fusion (Homo sapiens, UniProt Q9NP59); test: Inhibition of ferroportin mediated iron export activity in an iron response assay (BLAzer); type: cell-based
T2 construct: expressed in transfected cells; host or cells: HEK-293 cell line #354 (derivative of HEK-293 Tet-ON Advanced, Clontech)
T2 sequence (Q9NP59 1-571): T1 sequence (Q9NP59 1-571)
Excerpt: Intracellular iron levels are indirectly measured in this assay by monitoring the activity of a beta-lactamase (BLA) reporter gene fused to the human ferritin promoter and the associated iron regulatory element (IRE) contained within the 5′ untranslated region of the ferritin mRNA. Expression of ferroportin (Fpn) in such a cell line leads to iron efflux and lower iron levels as reflected by lower activity of the reporter gene. On the other hand, inhibition of Fpn-mediated iron efflux results in elevated cellular iron levels which is detected as increased reporter gene activity. Small molecular weight Fpn inhibitor compounds were tested for dose-dependent effects in this in vitro iron response assay as described below.
The HEK-293 cell line #354 was generated by stable integration of (i) a human Fpn-GFP fusion construct inserted in a derivative of the doxycycline-inducible pTRE-Tight-BI plasmid (Clontech, Cat. 631068) and (ii) a human ferritin promoter-BLA reporter gene into a derivative of the HEK-293 Tet-ON Advanced cell line (Clontech). […] After overnight incubation, 10 μl/well of dilution series of the test compounds were added in quadruplicates and plates were further incubated overnight at 37° C. with 5% CQ. Cells were washed 3 times with HBSS leaving 25 μl per well. BLA activity was detected by adding 5 μl/well of the GeneBlazer reagent CCF4-AM (Invitrogen, Cat. K1085) to the cells. After incubation of the plates in the dark at 18° C. for 60 min., blue and green fluorescence signals were measured in a Safre2 fluorescence plate reader (Tecan) with excitation at 410 nm and emissions at 458 nm (blue) and 522 nm (green). The ratio of blue/green fluorescence as a measure for BLA activity was calculated and EC50 values were determined with the calculated blue/green fluorescence ratios as described for the hepcidin internalization assay.

[3] = target: T2, human Fpn-GFP fusion; test: Ferroportin Internalization and Degradation Assay (FACS); type: cell-based
Method: Growing HEK-293 #354 cells in doxycycline containing media induced expression of human Fpn-GFP fusion protein on the cell surface. […] Small molecular weight Fpn inhibitor compounds were tested for dose-dependent effects on the Fpn-GFP mean fluorescence intensity (MFI) on HEK-293 cell line #354, as described below. HEK #354 cells were harvested from ca. 80% confluent cultures, seeded at 0.6×10^6 (cells/ml in DMEM/F12 GlutaMAX™ medium (Invitrogen, Cat. 31331-028) containing 10% FBS (Clontech, Cat. 631106), 1% Penicillin-Streptomycin (Invitrogen, Cat. 15140-122), 200 μg/ml Hygromycin B (Invitrogen, Cat. 10687-010), Blasticidin 5 μg/ml, (Invitrogen, Cat. R210-01), 4 μg/ml doxycycline (Clontech, Cat. 631311), 50 μl per well of 384 well plates (Greiner; Cat. 781091) and grown at 37° C. with 5% CQ. After overnight incubation, 10 μl/well of dilution series of the test compounds were added in quadruplicates and plates were further incubated overnight at 37° C. with 5% CO2. Cells were washed once with FACS buffer (PBS containing 1% FBS, 2 mM EDTA and 0.05% NaN3), harvested in FACS buffer with 0.5 μg/ml propidium iodide (Sigma, Cat. P4864) and analyzed in a flow cytometer (CANTO™ II, BD Biosciences) equipped with high throughput sampler. Live HEK #354 cells were gated as propidium iodide negative population and analyzed for expression of Fpn-GFP.

[4] = average of multiple measurements, 1 μM human Fpn, 20 nM TMR-hepcidin, read-out: FP IC50
[5] = average of multiple measurements, HEK-293 cell line #354, read-out: BLAzer EC50
[6] = average of multiple measurements; Fpn-GFP MFI, HEK-293 cell line #354, FACS
[7] = average of multiple measurements; Fpn-GFP MFI, HEK-293 cell line #354, FACS; read-out: EC50 ferroportin internalization and degradation

Compound	IC50 [1, 4]	EC50 [2, 5]	EC50 [3, 6]	IC50 [1]	EC50 [2]	DC50 ([3]; read-out: EC50 ferroportin internalization and degradation; average of multiple measurements; Fpn-GFP MFI, HEK-293 cell line #354, FACS)	DC50 [3, 7]
O=C(NCc1ncccc1Cl)c1cnn(CCNCc2nc3ccccc3[nH]2)c1 [Example 138]	160 nM	1720 nM	678 nM	–	–	–	–
O=C(NCc1ncccc1F)c1nc(CCNCCc2nc3ccccc3[nH]2)sc1Cl [Example 154]	30 nM	740 nM	130 nM	–	–	–	–
O=C(NCc1ncccc1Cl)c1cnn(CCNCCc2nc3ccccc3[nH]2)c1 [Example 144]	73 nM	470 nM	43 nM	–	–	–	–
O=C(NCc1ncccc1F)c1coc(CCNCCc2nc3c(F)cccc3[nH]2)n1 [Example 228]	21 nM	2120 nM	460 nM	–	–	–	–
O=C(NCc1cccnn1)c1csc(CCNCCc2nc3ccccc3[nH]2)n1 [Example 122]	214 nM	4330 nM	3020 nM	–	–	–	–
O=C(NCc1ncc(F)cc1F)c1csc(CCNCCc2nc3ccccc3[nH]2)n1 [Example 116]	58 nM	2790 nM	590 nM	–	–	–	–
O=C(NCc1ncccc1Cl)c1csc(CCNCc2nc3ccccc3[nH]2)n1 [Example 82]	374 nM	760 nM	689 nM	–	–	–	–
O=C(NCc1ncccc1F)c1coc(CCNCCc2nc3c(Cl)cccc3[nH]2)n1 [Example 226]	26 nM	2340 nM	490 nM	–	–	–	–
O=C(NCc1ncccc1F)c1cncc(C2CN(CCc3nc4ccccc4[nH]3)C2)c1 [compound 237]	66 nM	2460 nM	–	–	–	–	–
O=C(NC1CCc2cccnc21)c1csc(CCNCc2nc3ccccc3[nH]2)n1 (centres unmarked) [Example 39]	1340 nM	2900 nM	–	–	–	–	–
O=C(NCc1ncccc1F)c1ncn(CCNCCc2nc3ccccc3[nH]2)n1 [Example 181]	89 nM	3720 nM	930 nM	–	–	–	–
O=C(NCc1ncccc1F)c1nc(CCNCc2nc3ccccc3[nH]2)sc1Cl [Example 151]	89 nM	720 nM	523 nM	–	–	–	–
O=C(NCc1ccccn1)c1coc(CCNCc2nc3ccccc3[nH]2)n1 [Example 137]	1040 nM	5750 nM	11100 nM	–	–	–	–
O=C(NCc1ncccc1F)c1csc(CNCCc2nc3ccccc3[nH]2)n1 [Example 118]	250 nM	2690 nM	4910 nM	–	–	–	–
O=C(NCc1ncccc1F)c1coc(C2CN(CCc3nc4c(F)cccc4[nH]3)C2)n1 [Example 239]	38 nM	880 nM	320 nM	–	–	–	–
O=C(NCc1ccccn1)c1csc(CCNCc2nc3ccccc3[nH]2)n1 [Example 12]	860 nM	8270 nM	–	–	–	–	–
CC[C@H](C)[C@@H]1NC(=O)[C@@H](NC(=O)[C@@H](NC(=O)[C@@H]2CCCN2C(=O)[C@H](Cc2ccccc2)NC(=O)[C@H](Cc2c[nH]cn2)NC(=O)[C@@H](NC(=O)[C@@H](N)CC(=O)O)[C@@H](C)O)[C@@H](C)CC)CSSC[C@@H](C(=O)N[C@@H](CCCCN)C(=O)N[C@H](C(=O)O)[C@@H](C)O)NC(=O)[C@@H]2CSSC[C@@H]3NC(=O)[C@@H]4CSSC[C@H](NC(=O)[C@H](Cc5ccccc5)NC1=O)C(=O)N[C@@H](CSSC[C@H](NC(=O)[C@H](CCCCN)NC(=O)[C@H](CO)NC(=O)[C@H](CCCNC(=N)N)NC(=O)[C@H](Cc1c[nH]cn1)NC3=O)C(=O)NCC(=O)N[C@@H](CCSC)C(=O)N2)C(=O)NCC(=O)N4 [hepcidin, reference compound]	–	–	–	370 ± 67 nM	96 ± 63 nM	4 ± 2 nM	–

Compound	IC50 [1, 4]	EC50 [2, 5]	EC50 [3, 6]	IC50 [1]	EC50 [2]	DC50 ([3]; read-out: EC50 ferroportin internalization and degradation; average of multiple measurements; Fpn-GFP MFI, HEK-293 cell line #354, FACS)	DC50 [3, 7]
O=C(NCc1ncccc1F)c1csc(CCCNCc2nc3ccccc3[nH]2)n1 [Example 134]	970 nM	4090 nM	5190 nM	–	–	–	–
O=C(NCc1ncccc1F)c1csc(CCNCCc2nc3c(F)cccc3[nH]2)n1 [Example 243]	34 nM	1400 nM	510 nM	–	–	–	–
O=C(NCc1ncccc1F)c1coc(C2CN(CCc3nc4ccccc4[nH]3)C2)n1 [Example 208]	19 nM	500 nM	150 nM	–	–	–	–
O=C(NCc1ncccc1F)c1coc(CCNCCc2nc3c(F)cc(F)cc3[nH]2)n1 [Example 249]	44 nM	1550 nM	950 nM	–	–	–	–
Cc1cnccc1CNC(=O)c1csc(CCNCc2nc3ccccc3[nH]2)n1 [Example 90]	418 nM	4030 nM	–	–	–	–	–
O=C(NCc1ncccc1F)c1ncn(CCNCc2nc3ccccc3[nH]2)n1 [Example 169]	540 nM	8230 nM	4120 nM	–	–	–	–
O=C(NCc1ncccc1F)c1cccc(CNCCc2nc3ccccc3[nH]2)c1 [Example 224]	201 nM	8200 nM	–	–	–	–	1830 nM
O=C(NCc1ncccc1Cl)c1coc(CCNCc2nc3ccccc3[nH]2)n1 [Example 141]	49 nM	1110 nM	290 nM	–	–	–	–
O=C(NCc1ncccc1F)c1csc(CCNCC(F)(F)c2nc3ccccc3[nH]2)n1 [Example 196]	870 nM	12700 nM	–	–	–	–	24800 nM
O=C(NCc1ncccc1F)c1coc(CCNCCc2nc3ccccc3[nH]2)n1 [Example 127]	23 nM	420 nM	81 nM	–	–	–	–
O=C(NCc1ncccc1F)c1csc(CCN(CCc2nc3ccccc3[nH]2)CCc2nc3ccccc3[nH]2)n1 [Example 152]	23 nM	170 nM	71 nM	–	–	–	–
O=C(NCc1ncccc1F)c1coc(CCNCc2nc3ccccc3[nH]2)n1 [Example 126]	120 nM	1260 nM	757 nM	–	–	–	–
O=C(NCc1ncccc1F)c1coc(CCNCCc2nc3cc(F)ccc3[nH]2)n1 [Example 250]	19 nM	460 nM	600 nM	–	–	–	–
O=C(NCc1cccnn1)c1nc(CCNCc2nc3ccccc3[nH]2)sc1Cl [Example 161]	260 nM	17200 nM	5300 nM	–	–	–	–
Cc1oc(CCNCCc2nc3ccccc3[nH]2)nc1C(=O)NCc1ncccc1F [Example 230]	58 nM	6380 nM	950 nM	–	–	–	–
O=C(NCc1ncccc1F)c1csc(CCNCCc2nc3cc(F)ccc3[nH]2)n1 [Example 120]	71 nM	1600 nM	530 nM	–	–	–	–
O=C(NC1CCc2cccnc21)c1csc(CCNCCc2nc3ccccc3[nH]2)n1 (centres unmarked) [Example 158]	41 nM	620 nM	325 nM	–	–	–	–
